Test results from PubChem BioAssay AID2060496 (Molecular Pharmacology Branch, DTP, NCI, 2025).

Tested on: 276233-004-R-J1-PDC complex spheroid viability
Test: Anticancer human tumor 276233-004-R-J1-PDC patient-derived colon adenocarcinoma cell line growth inhibition [GQUAD]
Conditions: for IC50: curve of first compound; for viability, T/C: stronger effect = lower value
Outline: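 Multi-cell-type spheroids of tumor cells with HUVEC and mesenchymal stem cells, treated with drug combinations. Concentrations descend in half-log steps from near clinical Cmax, or from 10 microM where Cmax is unknown; viability read-out.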

[1] = second compound 0.0316 µM, first compound 0.0316 µM
[2] = second compound 0.0316 µM, first compound 0.1 µM
[3] = second compound 0.0316 µM, first compound 0.316 µM
[4] = second compound 0.0316 µM, first compound 1 µM
[5] = second compound 0.0316 µM, first compound 3.16 µM
[6] = second compound 0.0316 µM, first compound 10 µM
[7] = second compound 0.1 µM, first compound 0.0316 µM
[8] = second compound 0.1 µM, first compound 0.1 µM
[9] = second compound 0.1 µM, first compound 0.316 µM
[10] = second compound 0.1 µM, first compound 1 µM
[11] = second compound 0.1 µM, first compound 3.16 µM
[12] = second compound 0.1 µM, first compound 10 µM
[13] = second compound 0.316 µM, first compound 0.0316 µM
[14] = second compound 0.316 µM, first compound 0.1 µM
[15] = second compound 0.316 µM, first compound 0.316 µM
[16] = second compound 0.316 µM, first compound 1 µM
[17] = second compound 0.316 µM, first compound 3.16 µM
[18] = second compound 0.316 µM, first compound 10 µM
[19] = second compound 1 µM, first compound 0.0316 µM
[20] = second compound 1 µM, first compound 0.1 µM
[21] = second compound 1 µM, first compound 0.316 µM
[22] = second compound 1 µM, first compound 1 µM
[23] = second compound 1 µM, first compound 3.16 µM
[24] = second compound 1 µM, first compound 10 µM
[25] = second compound 3.16 µM, first compound 0.0316 µM
[26] = second compound 3.16 µM, first compound 0.1 µM
[27] = second compound 3.16 µM, first compound 0.316 µM
[28] = second compound 3.16 µM, first compound 1 µM
[29] = second compound 3.16 µM, first compound 3.16 µM
[30] = second compound 3.16 µM, first compound 10 µM
[31] = second compound 10 µM, first compound 0.0316 µM
[32] = second compound 10 µM, first compound 0.1 µM
[33] = second compound 10 µM, first compound 0.316 µM
[34] = second compound 10 µM, first compound 1 µM
[35] = second compound 10 µM, first compound 3.16 µM
[36] = second compound 10 µM, first compound 10 µM
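Note: spheroids exposed to drugs for seven days.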
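Throughout, for viability, T/C: 100% = DMSO vehicle control viability.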

Molecule O=C(NO)c1cnc(N2CCN(S(=O)(=O)c3ccc4ccccc4c3)CC2)nc1 + Cc1cnc(CNC(=O)c2c(=O)c3ccc(N4CCCN(C)CC4)nc3n3c2sc2ccccc23)cn1 has an IC50 (second compound 0.0316 µM) of 456 nM, an IC50 (second compound 0.1 µM) of 284 nM and an IC50 (second compound 0.316 µM) of 281 nM. The IC50 (second compound 1 µM) was 195 nM, the IC50 (second compound 3.16 µM) was 146 nM and the IC50 (second compound 10 µM) was 112 nM. The viability, T/C [1] was 102%, the viability, T/C [2] was 86.2% and the viability, T/C [3] was 69%. The viability, T/C [4] was 10.2%, the viability, T/C [5] was 5.35% and the viability, T/C [6] was 4.15%. It also gave a viability, T/C [7] of 93.9%, a viability, T/C [8] of 94.6% and a viability, T/C [9] of 44.4%. For the same molecule, the viability, T/C [10] was 13.8%, the viability, T/C [11] was 5.07% and the viability, T/C [12] was 3.5%. It also gave a viability, T/C [13] of 84.6%, a viability, T/C [14] of 85.2% and a viability, T/C [15] of 46%. It also gave a viability, T/C [16] of 6.38%, a viability, T/C [17] of 5.3% and a viability, T/C [18] of 5.47%. For the same molecule, the viability, T/C [19] was 67.8%, the viability, T/C [20] was 86% and the viability, T/C [21] was 30.5%. The viability, T/C [22] was 6.13%, the viability, T/C [23] was 4.71% and the viability, T/C [24] was 4.58%. For the same molecule, the viability, T/C [25] was 72.2%, the viability, T/C [26] was 63.9% and the viability, T/C [27] was 21.5%. It also gave a viability, T/C [28] of 5.71%, a viability, T/C [29] of 5.15% and a viability, T/C [30] of 5.15%. It also gave a viability, T/C [31] of 71.6%, a viability, T/C [32] of 54.2% and a viability, T/C [33] of 11.4%. It also gave a viability, T/C [34] of 5.41%, a viability, T/C [35] of 4.71% and a viability, T/C [36] of 3.76%.
O=c1[nH]cc(F)c(=O)[nH]1 + Cc1cnc(CNC(=O)c2c(=O)c3ccc(N4CCCN(C)CC4)nc3n3c2sc2ccccc23)cn1 showed an IC50 (second compound 0.0316 µM) greater than 10000 nM, an IC50 (second compound 0.1 µM) greater than 10000 nM and an IC50 (second compound 0.316 µM) greater than 10000 nM. It also gave an IC50 (second compound 1 µM) greater than 10000 nM, an IC50 (second compound 3.16 µM) greater than 10000 nM and an IC50 (second compound 10 µM) greater than 10000 nM. For the same molecule, the viability, T/C [1] was 86.8%, the viability, T/C [2] was 82.2% and the viability, T/C [3] was 90.7%. It also gave a viability, T/C [4] of 81.2%, a viability, T/C [5] of 98.8% and a viability, T/C [6] of 97.5%. It also gave a viability, T/C [7] of 97.1%, a viability, T/C [8] of 96.5% and a viability, T/C [9] of 89.1%. It also gave a viability, T/C [10] of 89.7%, a viability, T/C [11] of 95.1% and a viability, T/C [12] of 102%. For the same molecule, the viability, T/C [13] was 87.4%, the viability, T/C [14] was 99.8% and the viability, T/C [15] was 99.1%. For the same molecule, the viability, T/C [16] was 85.6%, the viability, T/C [17] was 98.6% and the viability, T/C [18] was 99.1%. It also gave a viability, T/C [19] of 78.2%, a viability, T/C [20] of 87.6% and a viability, T/C [21] of 80.4%. For the same molecule, the viability, T/C [22] was 90%, the viability, T/C [23] was 92.7% and the viability, T/C [24] was 94.4%. For the same molecule, the viability, T/C [25] was 82.7%, the viability, T/C [26] was 74.9% and the viability, T/C [27] was 79.2%. For the same molecule, the viability, T/C [28] was 82.8%, the viability, T/C [29] was 83.7% and the viability, T/C [30] was 82.2%. The viability, T/C [31] was 69.8%, the viability, T/C [32] was 79.3% and the viability, T/C [33] was 80.5%. For the same molecule, the viability, T/C [34] was 86.2%, the viability, T/C [35] was 61.8% and the viability, T/C [36] was 79.6%.
